The source made the active and inactive calls. How the calls were made is not given here.
These molecules were tested against Nuclear receptor coactivator 1 (Homo sapiens) (UniProt Q15788) (assay: SRC1 coactivator transcriptional activity inhibitors, dose response, counter-screen for SRC3 inhibitor project, cell-based, luminescence (AID 602168)). Conditions: Cell-based SRC1 luciferase reporter.
Chain of Nuclear receptor coactivator 1 (Homo sapiens) (Q15788 whole entry, looked up): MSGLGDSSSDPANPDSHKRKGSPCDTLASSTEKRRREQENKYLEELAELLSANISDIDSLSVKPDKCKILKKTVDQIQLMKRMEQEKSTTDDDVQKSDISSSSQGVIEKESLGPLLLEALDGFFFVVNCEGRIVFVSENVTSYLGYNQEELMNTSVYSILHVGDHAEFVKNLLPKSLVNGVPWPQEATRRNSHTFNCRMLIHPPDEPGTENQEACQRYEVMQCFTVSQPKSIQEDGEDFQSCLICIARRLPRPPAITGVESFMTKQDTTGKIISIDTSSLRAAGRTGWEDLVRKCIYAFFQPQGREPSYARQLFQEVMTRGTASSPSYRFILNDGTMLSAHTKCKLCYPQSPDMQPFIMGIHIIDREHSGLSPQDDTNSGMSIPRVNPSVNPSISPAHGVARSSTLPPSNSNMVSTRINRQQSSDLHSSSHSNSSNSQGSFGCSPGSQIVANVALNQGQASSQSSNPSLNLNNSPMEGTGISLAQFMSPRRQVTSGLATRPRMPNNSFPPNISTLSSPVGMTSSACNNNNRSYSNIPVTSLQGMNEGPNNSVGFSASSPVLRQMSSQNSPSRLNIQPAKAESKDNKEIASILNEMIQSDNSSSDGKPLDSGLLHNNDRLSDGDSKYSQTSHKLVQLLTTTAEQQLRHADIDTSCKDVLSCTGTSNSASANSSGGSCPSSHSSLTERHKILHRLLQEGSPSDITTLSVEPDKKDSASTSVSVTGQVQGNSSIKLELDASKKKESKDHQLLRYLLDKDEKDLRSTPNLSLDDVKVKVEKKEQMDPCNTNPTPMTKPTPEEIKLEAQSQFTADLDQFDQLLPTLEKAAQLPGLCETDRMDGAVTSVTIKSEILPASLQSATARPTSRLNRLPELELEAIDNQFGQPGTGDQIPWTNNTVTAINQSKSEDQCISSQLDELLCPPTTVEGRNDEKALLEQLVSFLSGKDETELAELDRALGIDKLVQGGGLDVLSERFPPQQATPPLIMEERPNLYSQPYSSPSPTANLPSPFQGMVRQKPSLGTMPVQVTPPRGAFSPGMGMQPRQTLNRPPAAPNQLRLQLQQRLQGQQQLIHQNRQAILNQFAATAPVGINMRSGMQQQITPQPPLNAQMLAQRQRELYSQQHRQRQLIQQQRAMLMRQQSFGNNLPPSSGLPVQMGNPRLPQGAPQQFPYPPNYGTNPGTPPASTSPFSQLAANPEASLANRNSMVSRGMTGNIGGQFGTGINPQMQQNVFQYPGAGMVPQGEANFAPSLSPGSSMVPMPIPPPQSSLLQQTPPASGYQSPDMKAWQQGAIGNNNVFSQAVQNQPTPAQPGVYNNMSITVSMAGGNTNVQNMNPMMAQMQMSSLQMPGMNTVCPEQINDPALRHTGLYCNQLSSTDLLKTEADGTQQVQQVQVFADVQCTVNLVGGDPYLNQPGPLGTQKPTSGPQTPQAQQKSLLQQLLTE
With `O=C(CC1CS(=O)(=O)CC1CC(=O)Nc1ccc2c(c1)OCCO2)Nc1ccc2c(c1)OCCO2` (stereo not drawn) the IC50 was > 35.9 µM (inactive). In the case of `N#Cc1c2ccc(O)cc2n2ccccc12`, the IC50 is reported as “inactive”. In the case of `COc1ccc(OC)c(Cc2cnc3nc(N)nc(N)c3c2C)c1`, the IC50 is reported as > 35.9 µM (inactive). For `C=CCOn1c(C)c(C(C)=O)c2c3nonc3ccc21`, the IC50 was 9.06 µM. In the case of `O=c1[nH]cnc2c1nnn2C1OC(CO)C(O)C1O` (stereo not drawn), the IC50 is reported as > 35.8 µM (inactive). For `Cc1ccc2occ(/C=N/NC(=O)c3ccccc3Br)c(=O)c2c1`, the IC50 was > 35.9 µM (inactive). `Nc1ncnc(NCc2ccccc2)c1[N+](=O)[O-]` was tested, and the IC50 was “inactive”. `Cc1cc(-c2nnc(SCC(=O)Nc3ccccc3C(F)(F)F)o2)c(C)n1-c1ccccc1` was tested, and the IC50 was > 35.9 µM (inactive). In the case of `O=[N+]([O-])c1cccc2c1ccc1ncccc12`, the IC50 is reported as “inactive”. With `O=S(=O)(c1ccc(F)cc1)c1snnc1-c1ccccc1` the IC50 was > 35.9 µM (inactive). In the case of `Nc1ncccc1C(=O)OCC(=O)N1CCN(S(=O)(=O)c2ccc(Cl)cc2)CC1`, the IC50 is reported as “inactive”. In the case of `O=C(CCl)N(c1ccccc1)C1CCS(=O)(=O)C1` (stereo not drawn), the IC50 is reported as “inactive”. `C=CCn1c(C)cc(C(=O)COc2ccc(C)nc2[N+](=O)[O-])c1C` was tested, and the IC50 was > 35.9 µM (inactive). `C=CCOc1ccc(/C=C2\SC(=S)N(CCC(=O)O)C2=O)cc1` gave an IC50 of 6.96 µM. With `CN(Cc1cnc2nc(N)nc(N)c2n1)c1ccc(C(=O)NC(CCC(=O)O)C(=O)O)cc1` (stereo not drawn) the IC50 was > 35.9 µM (inactive). With `CC(C)(C)C(=O)Nc1ccc(N=Nc2ccccc2)cc1` the IC50 was > 35.9 µM (inactive). `Cc1ccc(C2=NN(C(=O)CCl)C(c3cccs3)C2)o1` (stereo not drawn) was tested, and the IC50 was “inactive”. `COc1ccc(C(C(=O)NC2CCCCC2)N(C(=O)CCl)c2ccc(Cl)cc2)cc1` (stereo not drawn) was tested, and the IC50 was “inactive”. With `CC(=O)OCCN1c2ccccc2Sc2cnccc21` the IC50 was “inactive”. For `CC(=O)c1ccc(Nc2c3c(nc4ccccc24)CCCC3)cc1`, the IC50 was > 35.9 µM (inactive). `COc1ccc(Nc2ccncc2[N+](=O)[O-])cc1` was tested, and the IC50 was 9.17 µM. With `O=C(Nc1cccnc1)c1ccc(C(=O)Nc2cccnc2)cc1` the IC50 was > 35.9 µM (inactive). `Nc1nc(CCl)nc(Nc2cccc3ccccc23)n1` was tested, and the IC50 was “inactive”. In the case of `COc1ccc(C(C(=O)NC2CCCCC2)N(C(=O)CCl)c2ccc(OC)cc2)cc1` (stereo not drawn), the IC50 is reported as “inactive”. `CN1C(=O)C2(C(C#N)=C(N)N(c3cc(Cl)cc(Cl)c3)C3=C2C(=O)CC(C)(C)C3)c2ccccc21` (stereo not drawn) was tested, and the IC50 was > 35.9 µM (inactive). In the case of `CO[C@@]12[C@@H]3N[C@@H]3CN1C1=C(C(=O)C(N)=C(C)C1=O)[C@@H]2COC(N)=O`, the IC50 is reported as > 35.8 µM (inactive). In the case of `COc1ccc(C)cc1NS(=O)(=O)c1ccc(NC(=O)CN(c2cc([N+](=O)[O-])ccc2C)S(C)(=O)=O)cc1`, the IC50 is reported as “inactive”. In the case of `O=C(c1ccncc1)N(Cc1cc2ccccc2[nH]c1=O)C1CCCCC1`, the IC50 is reported as 7.48 µM. `CCOc1ccccc1-n1c(SCC(=O)Nc2ccccc2C(=O)O)nc2ccccc2c1=O` was tested, and the IC50 was > 35.9 µM (inactive). `COc1cccc(/C=N/Nc2ccc([N+](=O)[O-])cn2)c1O` was tested, and the IC50 was > 35.9 µM (inactive). `O=c1[nH]c2ccccc2n1C1CCN(C(c2cccc3ccccc23)c2nnnn2-c2ccc3c(c2)OCCO3)CC1` (stereo not drawn) was tested, and the IC50 was “inactive”. In the case of `Cc1ccc(-n2c(C)cc(C(=O)COc3cccnc3[N+](=O)[O-])c2C)cc1`, the IC50 is reported as > 35.9 µM (inactive). For `CS(=O)(=O)c1ccc(Sc2nc3ccccc3s2)c([N+](=O)[O-])c1`, the IC50 was > 35.9 µM (inactive). In the case of `COc1cc(/C=C2\CC(C(C)(C)C)C/C(=C\c3cc(OC)c(OC)c(OC)c3)C2=O)cc(OC)c1OC` (stereo not drawn), the IC50 is reported as > 35.9 µM (inactive). In the case of `CN(Cc1cnc2nc(N)nc(N)c2n1)c1ccc(C(=O)N[C@@H](CCC(=O)O)C(=O)O)cc1`, the IC50 is reported as > 35.9 µM (inactive). `Cc1sc2ncnc(N3CCC(C(=O)Nc4ccccc4C(C)(C)C)CC3)c2c1C` gave an IC50 of 7.15 µM. In the case of `CCn1ccnc1CN(C)Cc1cn[nH]c1-c1ccc(OC)c(F)c1`, the IC50 is reported as 9.9 µM. For `O=C(CCl)NC(Cc1ccccc1)c1ccccc1` (stereo not drawn), the IC50 was “inactive”. In the case of `CCCc1c(C)nc2ccccc2c1SCCC#N`, the IC50 is reported as 9.45 µM. `Cc1c(Cl)cccc1NC(=O)Nc1ccccc1C(N)=O` was tested, and the IC50 was > 35.9 µM (inactive). With `Cc1cccc(Oc2sc(C(=O)c3ccccc3)c(N)c2C#N)c1` the IC50 was “inactive”. For `CNC(=O)c1cccn(Cc2ccc(C(F)(F)F)cc2)c1=O`, the IC50 was > 35.8 µM (inactive). In the case of `O=c1[nH]c2ccccc2n1C1CCN(C(c2cc3ccccc3o2)c2nnnn2Cc2ccccc2)CC1` (stereo not drawn), the IC50 is reported as “inactive”. `O=C(NC(NC(=S)N1CCOCC1)C(Cl)(Cl)Cl)c1ccc(Cl)cc1` (stereo not drawn) was tested, and the IC50 was “inactive”. With `CCn1nc(/C=C/c2ccccc2)nc2c(=O)n(C)c(=O)nc1-2` the IC50 was > 35.9 µM (inactive). In the case of `CN(C)S(=O)(=O)c1ccc(N2CCN(S(=O)(=O)c3ccc(F)cc3)CC2)c(Cl)c1`, the IC50 is reported as “inactive”. With `Nc1nc2c(nnn2C2CC(O)C(CO)O2)c(=O)[nH]1` (stereo not drawn) the IC50 was > 35.9 µM (inactive). For `C=CS(=O)(=O)N(Cc1ccc(Cl)c(Cl)c1)C[C@@H](O)CO`, the IC50 was > 35.8 µM (inactive). `CC1(C)N=C(N)N=C(N)N1CCCCc1ccccc1` showed an IC50 of 4.58 µM. With `CC(=O)NC(c1cc(Cl)c2cccnc2c1O)C(C)C` (stereo not drawn) the IC50 was 7.94 µM. With `Clc1ccc(-c2csc3ncnc(NCCN4CCOCC4)c23)cc1` the IC50 was “inactive”. `Cc1nnc(SC(=O)N2c3ccccc3Sc3ccccc32)s1` was tested, and the IC50 was > 35.9 µM (inactive). `Nc1ccc(Oc2ccccc2-c2ccccc2)cc1` was tested, and the IC50 was “inactive”. For `COc1ccc(CCNC(=O)c2nnn(-c3ccc4c(c3)OCCO4)c2N)cc1OC`, the IC50 was > 35.9 µM (inactive). `O=C(COc1ccc(Cl)cc1)Nc1ccc(C(=O)NCc2cccnc2)cc1` showed an IC50 of 9.27 µM. In the case of `c1cc2[nH]snc2c2nc(C3CC3)nc12`, the IC50 is reported as “inactive”. In the case of `Cc1ccc(NC(=O)c2cc(C)n(-c3ccccc3)c2C)cc1`, the IC50 is reported as > 35.9 µM (inactive). `CN(Cc1cnc2nc(N)nc(N)c2n1)c1ccc(C(=O)NC(CCC(=O)O)C(=O)O)c2ccccc12` (stereo not drawn) was tested, and the IC50 was > 35.9 µM (inactive). With `Cc1cccc(CN2CCN(C(=O)CCl)CC2)c1` the IC50 was > 35.9 µM (inactive). With `O=C(N/N=C/c1cc(Br)c(Br)s1)c1ccncc1` the IC50 was “inactive”. For `COc1cccc(/C=N/Nc2cc(-n3nc(C)cc3-c3ccccc3)ncn2)c1O`, the IC50 was “inactive”. In the case of `CC(C)(C)c1ccc(Oc2ccc(N)cn2)cc1`, the IC50 is reported as “inactive”. In the case of `C#CC(=O)N(c1cc(OC)ccc1OC)C(C(=O)NC1CCCC1)c1cccs1` (stereo not drawn), the IC50 is reported as > 35.9 µM (inactive). For `COc1cc(C(=O)OCC(=O)Nc2sccc2C(N)=O)cc(OC)c1OC`, the IC50 was > 35.9 µM (inactive). In the case of `COc1ccc(COC(=O)C2=C(C)NC(=O)NC2c2ccc(F)cc2)cc1` (stereo not drawn), the IC50 is reported as “inactive”. In the case of `Cc1cccc(C)c1NS(=O)(=O)c1ccc(-c2cnc(C3CC3)o2)cc1`, the IC50 is reported as “inactive”. For `O=c1[nH]c2ccccc2n1C1CCN(C(c2ccccc2)c2nnnn2-c2ccc3c(c2)OCCO3)CC1` (stereo not drawn), the IC50 was “inactive”. With `O=C(COC(=O)c1ccc[nH]c1=O)Nc1ccc(N2CCCCC2)cc1` the IC50 was > 35.9 µM (inactive). In the case of `CC(=O)Nc1ccc(SCC(=O)c2cc(C)n(-c3ccccc3F)c2C)cc1`, the IC50 is reported as > 12 µM (inactive). `O=C(Nc1ccccc1Oc1ccccc1)c1cc([N+](=O)[O-])ccc1Cl` was tested, and the IC50 was “inactive”. `C=C1C(=O)[C@]23C[C@H]1CCC2[C@@]1(C)C(C[C@@H]3O)[C@](C)(C(=O)OC)CC[C@@H]1O` (stereo partly drawn) was tested, and the IC50 was “inactive”. In the case of `O=C(CCl)N(c1ccccc1)C1CCCCC1`, the IC50 is reported as “inactive”. `NS(=O)(=O)c1ccc(Sc2nc3ccccc3s2)c([N+](=O)[O-])c1` was tested, and the IC50 was > 35.9 µM (inactive). `COc1cc(NS(C)(=O)=O)ccc1Nc1c2ccccc2nc2ccccc12` was tested, and the IC50 was > 35.9 µM (inactive). In the case of `O=C(N/N=C\c1ccc([N+](=O)[O-])o1)C1COc2ccccc2O1` (stereo not drawn), the IC50 is reported as > 35.9 µM (inactive). With `Cc1cccc(NC(=O)c2cc(Cl)ccc2[N+](=O)[O-])c1` the IC50 was “inactive”. For `O=C(Nc1cccc(C(F)(F)F)c1)Nc1nnc([C@@H]2C[C@H](O)[C@@H](CO)O2)s1`, the IC50 was 5.71 µM. `COc1cccc(-c2nnc3sc(C4CCCCC4)nn23)c1` showed an IC50 of 3.46 µM. `Nc1nc(=S)c2ncn([C@@H]3O[C@H](CO)[C@@H](O)[C@H]3O)c2[nH]1` was tested, and the IC50 was > 35.9 µM (inactive). In the case of `CCOc1ccc(-c2cc(C)n3nc(C(N)=O)cc3n2)cc1`, the IC50 is reported as “inactive”. Work on `CC[C@@]1(O)C(=O)OCc2c1cc1n(c2=O)Cc2cc3c(NC(=O)CN)cccc3nc2-1` yielded an IC50 of 3.78 µM. With `COc1cc2c(cc1OC)C(C)N(C(=O)c1cccc([N+](=O)[O-])c1)CC2` (stereo not drawn) the IC50 was “inactive”. `CCc1ccc(/C=C2\SC(=S)N(CCCC(=O)NCCCN3CCOCC3)C2=O)cc1` was tested, and the IC50 was “inactive”. With `O=C(CCCc1nc(-c2ccccc2Cl)no1)NC1CCCC1` the IC50 was “inactive”. With `Cc1ncc(CO)c(/C=N/NC(=O)c2cc3c(s2)CCCC3)c1O` the IC50 was “inactive”. `CCCC(=O)NC(c1ccc(Cl)cc1)c1ccc2cccnc2c1O` (stereo not drawn) gave an IC50 of 8.71 µM. `C(=N\Nc1ccc2ccccc2n1)/c1ccc2c(c1)OCCO2` was tested, and the IC50 was “inactive”. For `Cc1ccc2occ(/C=N/NC(=O)[C@@H](N)Cc3ccccc3)c(=O)c2c1`, the IC50 was “inactive”. In the case of `Cc1ccc(-n2c(Cl)c(Cl)nc(Cl)c2=O)cc1`, the IC50 is reported as “inactive”. `O=C(NCCc1ccccc1)c1ccc2c(c1)OCCO2` was tested, and the IC50 was “inactive”. For `Cc1ccc(N(CCC#N)C(=O)CCl)cc1C`, the IC50 was “inactive”. Molecule `Cc1nc(N)nc(N)c1-c1ccc(Cl)c(Cl)c1` has an IC50 of 5.41 µM. With `O=C(NC1CCCCC1)C(c1cccnc1)N(C(=O)CCl)c1cccc(Cl)c1` (stereo not drawn) the IC50 was “inactive”. `O=C(NCc1ccccc1)c1c(Cl)nc(Cl)c(Cl)c1Cl` was tested, and the IC50 was > 35.9 µM (inactive). `C/C(=N\NC(=S)Nc1cc(S(=O)(=O)N2CCOCC2)ccc1Cl)c1ccccc1F` was tested, and the IC50 was “inactive”. With `CCC(=O)c1ccc(O)c(CC=C(C)C)c1` the IC50 was “inactive”. In the case of `CC(=O)c1cccc(-c2csc3ncnc(Sc4nnnn4C)c23)c1`, the IC50 is reported as > 35.9 µM (inactive). In the case of `COc1cccc(CNc2ncnc3ccc(-c4c(C)noc4C)cc23)c1`, the IC50 is reported as > 35.9 µM (inactive). In the case of `COC(CN(C(=O)CCl)C(C(=O)NC1CCCCC1)c1ccccc1C)OC` (stereo not drawn), the IC50 is reported as “inactive”. With `O=C(Nc1nc2cc3c(cc2s1)OCCO3)C1=COCCO1` the IC50 was “inactive”. `COc1cc(/C=N/NC(=Nc2ccc(C)cc2)c2nc3ccccc3s2)ccc1O` showed an IC50 of 8.17 µM. In the case of `Cc1ccc(C(=O)O/N=C(\N)c2ccccn2)c(Cl)c1`, the IC50 is reported as > 35.9 µM (inactive). For `O=c1[nH]c(O)c(N=Nc2ccc3c(c2)OCCO3)c(=O)[nH]1`, the IC50 was > 35.9 µM (inactive).

From PubChem BioAssay AID602168 (The Scripps Research Institute Molecular Screening Center, 2012)
